The conditions of series [1]: cited from earlier work.
Series [2] is described as follows: Fragrance burst (perfume headspace) of single perfumes in 5% sodium laurate shower product diluted through the CMC. The class given is physicochemical. The conditions noted are these: diluted through the CMC (FIG. 3). How it is done: It is precisely this “burst” or increase in headspace (e.g., from start of dilution up until CMC) and methods for determining in what compositions it will occur that is the basis of the subject invention.
Several different fragrance molecules were tested experimentally to validate the theoretical predictions. Limonene, p-cymene, α-pinene, tetrahydrolinolool, α-ionone, γ-methyl ionone, benzyl acetate and 2-phenoxylethanol were tested in a 5% sodium laurate shower product and diluted a number of times through the CMC (FIG. 3).

Series [3] is described as follows: Fragrance burst in shower liquids with different surfactant concentrations. Particulars: sodium laurate at 5, 10, 15 (20) wt. % (FIG. 6). It counts as physicochemical.
Series [4] in a line: Fragrance burst in shower liquids with surfactants of different CMC. The class given is physicochemical. The conditions noted are these: 5% sodium laureth sulfate (CMC=0.0011) vs 5% sodium laurate (CMC=0.005) (FIG. 8). How it is done: Limonene and γ-Methyl Ionone were tested in two different shower liquid samples. One product was formulated with 5% sodium laurate (CMC=0.005 wt/wt) and the second with 5% sodium laureth sulfate (CMC=0.0011 wt/wt) (FIG. 8).

The nature of series [5]: Critical micellization concentration (CMC) of surfactants. It counts as physicochemical. An excerpt: As noted, the perfume burst is affected not only by the perfume properties, but also by properties of the formulation in which the perfume is found. Thus, the number and type of surfactant micelles found in a surfactant solution also has an effect. […] The critical micellization concentration is defined as the surfactant concentration at which micelles begin to form from unassociated surfactant monomers (M. J. Rosen, Surfactants and Interfacial Phenomena, 2nd Ed., 1989). Conversely, in a surfactant with low critical micelle concentration (e.g., one where micelles do form easily or, stated differently, don't break apart as readily once formed), a perfume, being generally more hydrophobic, tends to stay in the surfactant more readily. As a result, the perfume will tend not to “burst” (increase perfume headspace) as readily and, to achieve more headspace, more dilution may be required. The CMC of the surfactant system also affects “perfume burst”. Thus, for example, a surfactant system of relatively low CMC (e.g., sodium lauryl ether sulfate, also known as SLES) lowers the PBI and can greatly reduce the expected “perfume burst” on dilution. By contrast, surfactant system of relatively higher CMC (e.g., sodium laurate compared to SLES) would raise PBI and can thus increase “perfume burst” on dilution.

Series [6] can be described thus: GC headspace vs dilution of components of a perfume mixture in 5 wt. % sodium laurate formulation. It counts as physicochemical. Particulars: twelve-component perfume mixture, 5 wt. % sodium laurate (FIG. 9). How it is done:
A typical fully formulated perfume used in a commercial product, e.g., personal wash formulation, usually is a multi-component composition in which the properties of each perfume component can vary dramatically. A typical perfume mixture in a 5 wt. % sodium laurate formulation was tested for its “perfume burst” behaviour upon dilution. […] Each component has a unique dilution curve (GC headspace vs. dilution factor) governed by the factors (hydrophobicity, volatility, etc) discussed previously.

Like-named read-outs stand apart in the source and are kept apart here. Marks after values point to notes of the source that are not given here.

For the molecule Sodium laureth sulfonate (2EO), the “CMC (wt./wt.)” value in series [1] (50° C.) is listed as 0.0011*** wt./wt. The CMC in series [1] (Example 9) is recorded as 0.0011 wt/wt; in series [1] (Example 11), 0.1 wt. %. Regarding `CC1=CCC2CC1C2(C)C` (stereo not drawn) [α-pinene], the fragrance burst in series [2] stood at 50%. `C=C(C)[C@H]1CC=C(C)CC1` [Limonene] came in with a fragrance burst in series [2] of around 95%. Besides, in series [3], the “effect of surfactant concentration on fragrance burst” value (shortened to “effect of surfactant concentration”) is “maximum fragrance burst is reached with fewer dilutions in the 5% soap product”. For the same molecule, the “effect of surfactant CMC on fragrance burst” value in series [4] is given as “lower overall fragrance burst”. On to `CCCCCCCCCCCCOC(=O)CCS(=O)(=O)[O-].[Na+]` [C12H25OOC(CH2)2SO3^−Na^+ (SCI)], for which the “CMC (wt./wt.)” value in series [1] (30° C.) is given as 0.00076* (30° C.) wt./wt. In the case of Sodium laureth sulfonate (3EO), in series [1] (50° C.), the “CMC (wt./wt.)” value is given as 0.00084*** wt./wt.

As to `CC(=O)/C=C/C1C(C)=CCCC1(C)C` (stereo not drawn) [α-ionone], in series [2], the fragrance burst is 430%.

In series [2], `Cc1ccc(C(C)C)cc1` [p-Cymene] had a fragrance burst of 120%. In the case of `CC(C)[C@@H]1CC[C@@H](C)CC1=O` [Menthone], in series [3], the “effect of surfactant concentration” value is “maximum fragrance burst is reached with fewer dilutions in the 5% soap product”. Regarding `CCCCCCCC(=O)NCCC[N+](C)(C)CC(=O)[O-]` [Caprylamidopropyl betaine], the “CMC (wt./wt.)” value in series [5] stood at 0.00032 wt./wt.

In series [2], `CC(=O)/C(C)=C/C1C(C)=CCCC1(C)C` (centres unmarked) [γ-methyl ionone] yielded a fragrance burst of 460%. The “effect of surfactant concentration” value in series [3] is “maximum fragrance burst is reached with fewer dilutions in the 5% soap product”. The “effect of surfactant CMC on fragrance burst” value in series [4] is given as “lower overall fragrance burst”. The “dilution behaviour of component (GC headspace)” value in series [6] is “as high as seven times”. On to `OCCOc1ccccc1` [2-Phenoxyethanol], for which the fragrance burst result in series [2] is “no fragrance burst at all”. As for `CC(=O)OCc1ccccc1` [Benzyl Acetate], the fragrance burst result in series [2] was “no fragrance burst at all”. Besides, in series [6], the “dilution behaviour of component (GC headspace)” value is on record as “perfume headspaces decrease upon dilution”. In series [2], `CCC(C)(O)CCCC(C)C` (centres unmarked) [Tetrahydrolinolool] gave a fragrance burst of 320%. For the molecule `CCCCCCCCCCCC(=O)[O-].[Na+]` [Sodium laurate], the CMC in series [1] (Example 9) is reported as 0.005 wt/wt; in series [1] (Example 11), 0.5 wt. %.

The record behind these values is patent publication US6858574B2, “Process for making perfume containing surfactant compositions having perfume burst when diluted” (Unilever Home & Personal Care USA, division of Conopco, Inc., priority 2002, dated 2005).
